Patent US20240400555A1 (Initial Therapeutics, Inc., priority 2023, published 2024)
Read-outs that look alike come from different tables or passages of the source.

System: HCT-116 Firefly-luciferase reporter cells
Test: Cellular c-MYC Reporter Assay
Type: cell-based
Conditions: Homo sapiens, read-out: pIC50 (converted)
In short: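 Compound exposure lasted 24 h at 37 °C, 5% CO2, in complete McCoy's 5A medium containing 0.2% DMSO, beginning 4–6 h post-seeding (5e4 cells/mL). Firefly luciferase signal measured by luminescence after 10 min ONE-Glo development at room temperature.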

[1] = untitled table following Table 8a, HCT-116 Firefly-luciferase reporter cells, 24 h

Question: How did the IC50 [1] turn out when COC(=O)c1ccc2c(N(C(=O)c3ccc(-n4nnc5cccnc54)cc3F)[C@@H]3CCCNC3)nccc2c1 [Example 117, methyl (R)-1-(4-(3H-[1,2,3]triazolo[4,5-b]pyridin-3-yl)-2-fluoro-N-(piperidin-3-yl)benzamido)isoquinoline-6-carboxylate] was run?
Answer: The IC50 was 490 nM.

Question: For O=C(c1ccc(-n2nnc3cccnc32)cc1F)N(c1nccc2sc(-c3ccncc3)cc12)[C@@H]1CCCNC1 [Example 161, (R)-4-(3H-[1,2,3]triazolo[4,5-b]pyridin-3-yl)-2-fluoro-N-(piperidin-3-yl)-N-(2-(pyridin-4-yl)thieno[3,2-c]pyridin-4-yl)benzamide], which IC50 [1] is on record?
Answer: Its IC50 is 417 nM.

Question: How did the IC50 [1] turn out when Cc1cc(C)c2c(N(C(=O)N3CCC(c4cc(C)no4)CC3)[C@@H]3CCCNC3)nccc2c1 [Example 278, (R)—N-(6,8-dimethylisoquinolin-1-yl)-4-(3-methylisoxazol-5-yl)-N-(piperidin-3-yl)piperidine-1-carboxamide] was run?
Answer: Its IC50 is 490 nM.

Question: How did the IC50 [1] turn out when O=C(c1ccc(-n2nnc3cccnc32)cc1F)N(c1nccc2ccc(/C=C/CO)cc12)[C@@H]1CCCNC1 [Example 135, (R)-4-(3H-[1,2,3]triazolo[4,5-b]pyridin-3-yl)-2-fluoro-N-(7-(3-hydroxyprop-1-en-1-yl)isoquinolin-1-yl)-N-(piperidin-3-yl)benzamide] was run?
Answer: The IC50 was 575 nM.

Question: Cc1cccc2ccnc(N(C(=O)N3CCC(c4cc(C(F)F)no4)CC3)[C@@H]3CCCNC3)c12 [Example 250, (R)-4-(3-(difluoromethyl)isoxazol-5-yl)-N-(8-methylisoquinolin-1-yl)-N-(piperidin-3-yl)piperidine-1-carboxamide] was tested. Which IC50 [1] did it give?
Answer: Its IC50 is 813 nM.

Question: For Cc1cccc2ccnc(N(C(=O)N3CCC(c4cc(C(N)=O)no4)CC3)[C@@H]3CCCNC3)c12 [Example 288, (R)-5-(1-((8-methylisoquinolin-1-yl)(piperidin-3-yl)carbamoyl)piperidin-4-yl)isoxazole-3-carboxamide], which IC50 [1] is on record?
Answer: The IC50 was 1350 nM.

Question: How did the IC50 [1] turn out when Cc1cccc2ccnc(N(C(=O)N3CCCC(C4CCC4)CC3)[C@@H]3CCCNC3)c12 (stereo partly drawn) [Example 261, 4-cyclobutyl-N-(8-methylisoquinolin-1-yl)-N—((R)-piperidin-3-yl)azepane-1-carboxamide] was run?
Answer: The IC50 was 5500 nM.

Question: Which IC50 [1] does the source give for CCOC(=O)/C=C/c1cccc2ccnc(N(C(=O)c3ccc(-c4cn(C)nn4)cc3)[C@@H]3CCCNC3)c12 [Example 100, ethyl (R,E)-3-(1-(4-(1-methyl-1H-1,2,3-triazol-4-yl)-N-(piperidin-3-yl)benzamido)isoquinolin-8-yl)acrylate] here?
Answer: The IC50 was 1170 nM.

Question: With Cc1cccc2ccnc(N(C(=O)c3ccc(-n4nnc5cccnc54)cc3)[C@@H]3CCNC3)c12 [Example 232, (R)-4-(3H-[1,2,3]triazolo[4,5-b]pyridin-3-yl)-N-(8-methylisoquinolin-1-yl)-N-(pyrrolidin-3-yl)benzamide] as the molecule, how does the IC50 [1] read?
Answer: Its IC50 is 8510 nM.

Question: Which IC50 [1] does the source give for NC(=O)c1ccc2ccnc(N(C(=O)c3ccc(-n4nnc5cccnc54)cc3F)[C@@H]3CCCNC3)c2c1 [Example 155, (R)-1-(4-(3H-[1,2,3]triazolo[4,5-b]pyridin-3-yl)-2-fluoro-N-(piperidin-3-yl)benzamido)isoquinoline-7-carboxamide] here?
Answer: Its IC50 is 5750 nM.

Question: Cc1cccc2ccnc(N(C(=O)c3ccc(Nc4ncco4)cc3F)[C@@H]3CCCNC3)c12 [Example 290, (R)-2-fluoro-N-(8-methylisoquinolin-1-yl)-4-(oxazol-2-ylamino)-N-(piperidin-3-yl) benzamide] was tested. Which IC50 [1] did it give?
Answer: Its IC50 is 3390 nM.

Question: Cc1cccc2ccnc(N(C(=O)c3ccc(-n4nnc5cccnc54)cc3)[C@@H]3CCCNCC3)c12 [Example 229, (R)-4-(3H-[1,2,3]triazolo[4,5-b]pyridin-3-yl)-N-(azepan-4-yl)-N-(8-methylisoquinolin-1-yl)benzamide] was tested. Which IC50 (HCT-116, 24 h) did it give?
Answer: Its IC50 is 15100 nM.

Question: Cc1nccnc1-c1ccc(C(=O)N(c2nccc3cccc(Cl)c23)[C@@H]2CCCNC2)c(F)c1 [Example 182, (R)—N-(8-chloroisoquinolin-1-yl)-2-fluoro-4-(3-methylpyrazin-2-yl)-N-(piperidin-3-yl)benzamide] was tested. Which IC50 [1] did it give?
Answer: The IC50 was 891 nM.

Question: Which IC50 (HCT-116, 24 h) does the source give for Cc1cccc2ccnc(N(C(=O)c3ccc(-n4nnc5cccnc54)cc3)[C@H]3CCCNCC3)c12 [Example 228, (S)-4-(3H-[1,2,3]triazolo[4,5-b]pyridin-3-yl)-N-(azepan-4-yl)-N-(8-methylisoquinolin-1-yl)benzamide] here?
Answer: Its IC50 is greater than 20000 nM.

Question: Cc1cccc2ccnc(N(C(=O)c3ccc(-n4nnc(C(C)C)n4)cc3F)[C@@H]3CCCNC3)c12 [Example 285, (R)-2-fluoro-4-(5-isopropyl-2H-tetrazol-2-yl)-N-(8-methylisoquinolin-1-yl)-N-(piperidin-3-yl) benzamide] was tested. Which IC50 [1] did it give?
Answer: Its IC50 is 295 nM.

Question: Which IC50 [1] does the source give for Cc1cccc2ccnc(N(C(=O)c3ccc(Nc4nccc5cccnc45)cc3F)[C@@H]3CCCNC3)c12 [Example 276, (R)-4-((1,7-naphthyridin-8-yl)amino)-2-fluoro-N-(8-methylisoquinolin-1-yl)-N-(piperidin-3-yl)benzamide] here?
Answer: The IC50 was 7080 nM.

Question: How did the IC50 [1] turn out when Cc1cccc2ccnc(N(C(=O)N3CC=C(c4ccccc4)CC3)[C@@H]3CCCNC3)c12 [Example 287, (R)—N-(8-methylisoquinolin-1-yl)-4-phenyl-N-(piperidin-3-yl)-3,6-dihydropyridine-1(2H)-carboxamide] was run?
Answer: Its IC50 is 5890 nM.

Question: For Cc1cccc2ccnc(N(C(=O)c3ccc(-n4nnc5ccccc54)cc3)[C@@H]3CCCNC3)c12 [Example 223, (R)-4-(1H-benzo[d][1,2,3]triazol-1-yl)-N-(8-methylisoquinolin-1-yl)-N-(piperidin-3-yl)benzamide], which IC50 [1] is on record?
Answer: The IC50 was 214 nM.

Question: Which IC50 [1] does the source give for Cc1cccc2ccnc(N(C(=O)c3ccc(-c4cnccn4)cc3F)[C@@H]3CCCNC3)c12 [Example 204, (R)-2-fluoro-N-(8-methylisoquinolin-1-yl)-N-(piperidin-3-yl)-4-(pyrazin-2-yl)benzamide] here?
Answer: Its IC50 is 479 nM.

Question: How did the IC50 [1] turn out when O=C(c1ccc(-n2nnc3cccnc32)cc1F)N(c1ncccc1C#CCCO)[C@@H]1CCCNC1 [Example 105, 2-fluoro-N-[3-(4-hydroxybut-1-ynyl)-2-pyridyl]-N-[(3R)-3-piperidyl]-4-(triazolo[4,5-b]pyridin-3-yl)benzamide] was run?
Answer: Its IC50 is 6310 nM.

Question: How did the IC50 [1] turn out when Cc1cccc2ccnc(N(C(=O)c3ccc(Nc4ncccn4)cn3)[C@@H]3CCCNC3)c12 [Example 184, (R)—N-(8-methylisoquinolin-1-yl)-N-(piperidin-3-yl)-5-(pyrimidin-2-ylamino) picolinamide] was run?
Answer: The IC50 was 1550 nM.

Question: With O=C(c1ccc(-n2nnc3cccnc32)cc1F)N(c1nccc2cc(Br)ccc12)[C@@H]1CCCNC1 [Example 143, (R)-4-(3H-[1,2,3]triazolo[4,5-b]pyridin-3-yl)-N-(6-bromoisoquinolin-1-yl)-2-fluoro-N-(piperidin-3-yl)benzamide] as the molecule, how does the IC50 [1] read?
Answer: Its IC50 is 724 nM.

Question: With Cc1nccnc1-c1ccc(C(=O)N(c2nccc3cccc(C)c23)[C@@H]2CCCNC2)c(F)c1 [Example 203, (R)-2-fluoro-N-(8-methylisoquinolin-1-yl)-4-(3-methylpyrazin-2-yl)-N-(piperidin-3-yl)benzamide] as the molecule, how does the IC50 [1] read?
Answer: The IC50 was 129 nM.

Question: Cc1cccc2ccnc(N(C(=O)c3ccc(Nc4nc5ccccn5n4)cc3F)[C@@H]3CCCNC3)c12 [Example 169, (R)-4-([1,2,4]triazolo[1,5-a]pyridin-2-ylamino)-2-fluoro-N-(8-methylisoquinolin-1-yl)-N-(piperidin-3-yl)benzamide] was tested. Which IC50 [1] did it give?
Answer: Its IC50 is 316 nM.
